Assay results reported in patent US7402574B2, “Antisense composition and method for treating cancer” (AVI BioPharma, Inc., priority 2004, dated 2008).

Assays:
HCT-116 = HCT-116 cells treated with sulindac sulfide, apoptosis and proliferation; format: cell-based, human; conditions: 100 μM, 3 days
SNAIL [1] = assay: HCT-116 cells treated with sulindac sulfide, SNAIL by RT-PCR; format: cell-based, human; conditions: 100 μM, 3 days, p=0.007
Procedure: (§1) For chemopreventive studies, we treated the human CRC cell line HCT-116 with sulindac sulfide (100 μM) or vehicle for 3 days and analyzed SNAIL and E-Cadherin by RT-PCR. In order to evaluate frequency of SNAIL overexpression in human colon cancer, we immunohistochemically probed a tissue array using a poly clonal antibody. Finally, to determine whether SNAIL is implicated in E-cadherin donwregulation in CRC, we treated 10 week old male MIN mice with antisense PMO to SNAIL (250 μg/day for 5 weeks) and examined E-cadherin levels in the uninvolved intestine using Western blot analysis.

E-Cadherin [2] = assay: HCT-116 cells treated with sulindac sulfide, E-Cadherin by RT-PCR; format: cell-based, human; conditions: 100 μM, 3 days
Procedure: as §1

Apc^Min/+ (MIN) mouse = assay: MIN mouse, antisense SNAIL PMO IP for four weeks, adenomatous polyp / tumor formation; format: in vivo; conditions: MIN mice, 4 weeks treatment, IP 250 μg per day, five days per week
Description: The Apc^Min/+ (MIN) mouse is a model for colorectal cancer and was used by the inventors to study the effects of antisense SNAIL PMO on the incidence and development of intestinal precancerous lesions (see e.g. Examples 2&3). The MIN mouse has a germ-line mutation in the adenomatous polyposis coli (Apc) gene which leads to familial adenomatous polyposis (FAP). Inactivation of Apc is found in 80% of sporadic human colorectal cancers and in humans with FAP (Kinzler and Vogelstein 1996). The MIN mouse model mimics the rapid development of adenomatous polyps that affect humans with germ-line inactivation of one Apc gene and therefore is a respected model for human colon carcinogenesis.
This observation clearly supports the role of SNAIL in the progression of colon carcinogenesis and as a potent target for anti-carcinogenic therapies.
Ten week-old MIN mice were injected intraperitonealy (IP) with SNAIL PMO (SEQ ID NO: 11) at a dose of 250 μg per day, five days per week for four weeks. Control mice were not injected with any antisense compound and were allowed to develop colon cancers.

E-cadherin [3] = assay: MIN mice treated with antisense PMO to SNAIL, E-cadherin in uninvolved intestine by Western blot; format: in vivo, mouse; conditions: 10 week old male MIN mice, 250 μg/day for 5 weeks, p=0.027
Procedure: as §1

APC^MIN mouse = assay: MIN mice, anti-SNAIL PMO daily i.p. 5 weeks, intestinal tumors scored; format: in vivo; conditions: 200 μg/20 g mouse
Procedure: (§2) Sixteen MIN mice (9-10 week old) were randomized to daily i.p. injections for 5 weeks with either saline or anti-SNAIL phosphorodiamidate morpholino antisense oligomers (PMO; 200 μg/20 g mouse). Animals were given BrdU 2 h prior to sacrifice and intestinal tumors were scored under magnification by observers blinded to treatment group. Immunohistochemical analysis was performed on formalin fixed intestinal segments for proliferation (BrdU labeling), apoptosis (using activated caspase 3) and SNAIL downregulation. The samples were scored by a gastrointestinal pathologist.

SNAIL [4] = assay: MIN mice, immunohistochemical analysis of intestinal segments for SNAIL downregulation; format: in vivo; conditions: daily i.p. 5 weeks, 200 μg/20 g mouse
Procedure: as §2

activated caspase 3 = assay: MIN mice, immunohistochemical analysis of intestinal segments for apoptosis (activated caspase 3); format: in vivo; conditions: daily i.p. 5 weeks, 200 μg/20 g mouse, immunohistochemistry, control 1.00 ± 0.74, p < 0.05
Procedure: as §2

[5] = tested on: mucosal proliferation (BrdU labeling); assay: MIN mice, immunohistochemical analysis of intestinal segments for proliferation (BrdU labeling); format: in vivo; conditions: daily i.p. 5 weeks, 200 μg/20 g mouse, BrdU 2 h prior to sacrifice, control 8.92 ± 8.00, p < 0.05
Procedure: as §2

MIN mice = assay: Hair loss (alopecia) in PMO treated MIN mice; format: in vivo, mouse; conditions: antisense treated MIN mice, Example 3
Description: As described above, SNAIL binds the E-box motifs of E-cadherin, and therefore inhibits E-cadherin expression. E cadherin is required for proper hair follicle cycling (Young, Boussadia et al. 2003). E-cadherin binds with β-catenin altering its location within the cell as well as reducing its availability. Decreasing the level of SNAIL leads to increased E-cadherin which then limits the availability of β-catenin. The decrease in β-catenin leads to an increase in genes in the NF-kappa beta pathway, including Fas and TRAF1. […] Antisense SNAIL PMO administered systemically (e.g. intravenous injection as in Example 3) could cause alopecia through Fas-mediated apoptosis of hair follicle cells or because E cadherin levels have increased sufficiently to cause abnormal hair follicle cycling.
as §2

Row | Compound | apoptosis (HCT-116) | proliferation (HCT-116) | SNAIL expression (% of vehicle) (SNAIL [1]) | E-cadherin expression (E-Cadherin [2]) | reduction in formation of adenomatous polyps, colon (Apc^Min/+ (MIN) mouse) | reduction in formation of adenomatous polyps, proximal bowel (Apc^Min/+ (MIN) mouse) | total number of tumors reduced (Apc^Min/+ (MIN) mouse) | increase in intestinal E-cadherin protein (E-cadherin [3]) | Tumor incidence (%) (APC^MIN mouse; control 25.06 ± 4.10, p < 0.05) | anti-tumorigenic effect (decrease) (APC^MIN mouse; versus saline control) | SNAIL (Arbit. Units) (SNAIL [4]; immunohistochemistry, control 2.58 ± 0.67, p < 0.05) | suppression of SNAIL protein expression (SNAIL [4]; versus saline control) | Cleaved Caspase-3 (Arbit. Units) (activated caspase 3) | BrdU Positive (% Total) [5] | hair loss (alopecia) (MIN mice) | hair loss (alopecia) (MIN mice; listed as Antisense SNAIL PMO)
1 | CSc1ccc(/C=C2/C(C)=C(CC(=O)O)c3cc(F)ccc32)cc1 [sulindac sulfide] | induced apoptosis | inhibited proliferation | 39.2 % of vehicle | induction | – | – | – | – | – | – | – | – | – | – | – | –
2 | SNAIL PMO: phosphorodiamidate morpholino antisense oligomer GGAGCGCGGCATGTTGGCC, target ncts. 8-26 of GenBank M95604 (all phosphorodiamidate morpholino (PMO)) | – | – | – | – | 44.1% | 41.6% | 21.9% | 26% | 19.57 ± 6.16% | 22% | 2.00 ± 0.58 Arbit. Units | 23% | 1.50 ± 0.65 Arbit. Units | 3.43 ± 3.80 % Total | pronounced hair loss (alopecia) | induce alopecia
